Data: US11078158B2, “(+)-3-(2,3-difluorophenyl)-3-methoxypyrrolidine or pharmaceutically acceptable salts thereof, a process for preparation thereof and uses thereof” (INTEGRATIVE RESEARCH LABORATORIES SWEDEN AB, priority 2017, dated 2021)

How the values were obtained:
human sigma 1 receptor = target: T1, human sigma 1 receptor (Homo sapiens, UniProt Q99720); test: In vitro competition binding assay, human sigma 1 receptor; conditions: 1.0 E-5 M test compound, 15 nM [3H] pentazocine, duplicate, mean value; read-out: Percent inhibition of the control radioligand specific binding
T1 construct: Cell membrane homogenates (150 μg protein) were incubated for 120 min at 37° C. with 15 nM; endogenous in cells; inferred to be Jurkat human T lymphocytes from the cited method (Ganapathy et al. 1999)
Method: The binding affinity of the fumaric acid salt of (+)-3-(2,3-difluorophenyl)-3-methoxypyrrolidine at the human sigma 1 receptor was determined by a competition binding assay similar to what is described in […], M. E., PRASAD, P. D., HUANG, W., SETH, P., LEIBACH, F. H. and […], V. (1999), Molecular and ligand-binding characterization of the σ-receptor in the Jurkat human T lymphocyte cell line, J. Pharmacol. Exp. Ther., 289: 251.
Cell membrane homogenates (150 μg protein) were incubated for 120 min at 37° C. with 15 nM [^3H] pentazocine in the absence or presence of the test compound in a buffer containing 50 mM Tris-HCl (pH 8).
Nonspecific binding was determined in the presence of 10 μM haloperidol.
Following incubation, the samples were filtered under vacuum through glass fiber filters (GF/B, Packard) presoaked with 0.3% PEI and rinsed several times with ice-cold 50 mM Tris-HCl using a 96-sample cell harvester (Unifilter, Packard). The filters were dried then counted for radioactivity in a scintillation counter (Topcount, Packard) using a scintillation cocktail (Microscint 0, Packard).
The results were expressed as a percent inhibition of the control radioligand specific binding.
The standard reference compound was haloperidol, which was tested in each experiment at several concentrations to obtain a competition curve from which its IC50 value was calculated. […]

[1] = Regular water solubility test; type: physicochemical; conditions: thermodynamic from solid, room temperature
Method: Water solubility tests for the salts as described herein were performed as follows unless otherwise stated. 0.05 g of each salt was weighed in a flask and the mass of flask+salt (m-vs) was recorded. Water was slowly added dropwise into the flask with salt until full dissolution was achieved as observed by the naked eye. The mass of flask+salt+solvent (m-sys) was recorded.
(s) stands for the weight of the salt measured in kg,
(m-sys) stands for the mass of the flask+salt+solvent measured in kg, and
(m-vs) stands for the mass of the flask+salt measured in kg.

[2] = Flask method water solubility test; type: physicochemical; conditions: saturated solution equilibrated at least 24 hours, room temperature
Method: In some cases, a further water solubility test (Flask method water solubility test) was performed as follows. An excess of salt was added to water. The mixture was equilibrated (shaking) for at least 24 hours thereby providing a saturated salt solution. Then the saturated solution was clear-filtered and transferred into a clean pre-weighed flask (mv). The mass of flask+saturated solution (mvs) was recorded. The solvent was evaporated under reduced pressure until constant mass. Flask containing dried residue was weighed (mvdr). The solubility expressed as “grams of solute/kg of solvent”, i.e. “grams of salt/kg of solvent”, was calculated according to the equation: […]
(mvdr-mv) is the weight difference in kg between (i) the mass of the flask containing dried residue after evaporation of the solvent and (ii) the mass of the flask, and
(mvs-mvdr) is the weight difference in kg between (i) the mass of the flask including the saturated salt solution and (ii) the mass of the flask containing the dried residue.

[3] = Crystalline phase at tested relative humidity; type: physicochemical; conditions: any tested relative humidity
Hygroscopicity test = type: physicochemical; conditions: 30° C., one week; for hygroscopicity (in words): any tested relative humidity
Method: Hygroscopicity tests of the salts were performed by keeping exact weight samples of the different salts at varied humidity at 30° C. After one week, the samples were weighed again and based on the original weight the percentage weight difference was calculated.
In the followed hygroscopicity test, the change in weight was measured after each acidic salt of (+)-3-(2,3-difluorophenyl)-3-methoxypyrrolidine was exposed for a week under the condition of 30° C. and different relative humidities (RH) 0 to 97%.

T1 sequence (Q99720 whole entry): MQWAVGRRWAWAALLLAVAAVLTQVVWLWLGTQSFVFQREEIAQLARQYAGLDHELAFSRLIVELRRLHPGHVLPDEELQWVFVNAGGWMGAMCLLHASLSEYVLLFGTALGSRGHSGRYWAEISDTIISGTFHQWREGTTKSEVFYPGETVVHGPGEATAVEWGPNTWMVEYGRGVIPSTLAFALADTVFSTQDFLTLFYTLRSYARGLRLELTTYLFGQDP

SMILES	inhibition at 10 µM (human sigma 1 receptor)	solubility [1]	solubility ([2]; water, thermodynamic from solid)	change of crystalline phase with humidity (in words) [3]	hygroscopicity (in words) (Hygroscopicity test; listed as Example 11)	hygroscopicity (in words) (Hygroscopicity test; listed as salt of Formula IIb)	Weight difference (%) (Hygroscopicity test; relative humidity 0%)	Weight difference (%) (Hygroscopicity test; relative humidity 6%)	Weight difference (%) (Hygroscopicity test; relative humidity 11%)	Weight difference (%) (Hygroscopicity test; relative humidity 22%)	Weight difference (%) (Hygroscopicity test; relative humidity 32%)	Weight difference (%) (Hygroscopicity test; relative humidity 43%)	Weight difference (%) (Hygroscopicity test; relative humidity 56%)	Weight difference (%) (Hygroscopicity test; relative humidity 73%)	Weight difference (%) (Hygroscopicity test; relative humidity 84%)	Weight difference (%) (Hygroscopicity test; relative humidity 97%)	Solubility in water (Flask method water solubility test) [2]
CO[C@]1(c2cccc(F)c2F)CCNC1.O=C(O)/C=C/C(=O)O [Example 7, fumarate Salt of (+)-3-(2,3-difluorophenyl)-3-methoxypyrrolidine]	79.1%	34 mg/mL	74.1 mg/mL	not changing in its crystalline phase at any tested relative humidity	does not adsorb or desorb water at any humidity	not being hygroscopic	−0.07%	−0.14%	0.11%	0.15%	0.13%	0.07%	0.19%	0.06%	0.00%	0.16%	
COC1(c2cccc(F)c2F)CCNC1.Cl (stereo not drawn) [Example 8, Hydrochloric Acid Salt of (+)-3-(2,3-difluorophenyl)-3-methoxypyrrolidine]							0.00%	−0.07%	−0.06%	−0.15%	0.00%	−0.13%	−0.14%	−0.13%	25.77%	99.12%	
COC1(c2cccc(F)c2F)CCNC1.O=C(O)C(O)C(O)C(=O)O [Example 9, L-Tartaric acid salt of (+)-3-(2,3-difluorophenyl)-3-methoxypyrrolidine]							−2.36%	−0.67%	−0.14%	2.40%	2.16%	1.71%	1.99%	1.90%	2.13%	2.39%	
COC1(c2cccc(F)c2F)CCNC1.O=C(O)C[C@H](O)C(=O)O [Example 13, L-Malic Acid Salt of (+)-3-(2,3-difluorophenyl)-3-methoxypyrrolidine]							−0.07%	0.00%	−0.13%	−0.08%	0.00%	−0.22%	−0.06%	0.07%	0.40%	34.37%	
COC1(c2cccc(F)c2F)CCNC1.O=C(O)C(=O)O (stereo not drawn) [Reference Example 19, oxalic Acid Salt of (+)-3-(2,3-difluorophenyl)-3-methoxypyrrolidine, reference compound]							0.00%	0.00%	−0.21%	0.00%	0.11%	−0.05%	0.00%	−0.05%	−0.15%	0.26%	28 mg/mL
